Data as given in ChEMBL document CHEMBL5055633, “Amphipathic Barbiturates as Mimics of Antimicrobial Peptides and the Marine Natural Products Eusynstyelamides with Activity against Multi-resistant Clinical Isolates” (J Med Chem, 2021).
Activity calls are given as the source filed them. The calls are words filed in the database; no cut-off is given here.

Assays:
[1] = test system: HepG2; assay: Cytotoxicity against human HepG2 cells assessed as reduction in cell viability incubated for 24 hrs by colorimetric tetrazolium assay; format: functional, cell-based; details: HepG2, 24 h
[2] = Hemolytic activity in human erythrocytes incubated for 1 hr by microplate reader; format: functional, cell-based; details: erythrocyte
[3] = Toxicity in ip dosed mouse assessed as maximum tolerated dose; format: organism-based; details: in vivo
[4] = test system: Pseudomonas aeruginosa; assay: Antimicrobial activity against Pseudomonas aeruginosa PAO1 assessed as reduction in bacterial growth incubated for 48 hrs by microdilution susceptibility test; format: functional
[5] = test system: Escherichia coli; assay: Antimicrobial activity against Escherichia coli ATCC 25922 assessed as reduction in bacterial growth incubated for 48 hrs by microdilution susceptibility test; format: functional
[6] = test system: Corynebacterium glutamicum; assay: Antimicrobial activity against Corynebacterium glutamicum ATCC 13032 assessed as reduction in bacterial growth incubated for 48 hrs by microdilution susceptibility test; format: functional
[7] = test system: Staphylococcus aureus; assay: Antimicrobial activity against Staphylococcus aureus ATCC 9144 assessed as reduction in bacterial growth incubated for 48 hrs by microdilution susceptibility test; format: functional
[8] = test system: MRC5; assay: Cytotoxicity against human MRC5 cells assessed as reduction in cell viability incubated for 24 hrs by colorimetric tetrazolium assay; format: functional, cell-based; details: MRC5, 24 h
[9] = test system: Staphylococcus aureus; assay: Antimicrobial activity against extended spectrum-lactamase-carbapenemas producing Staphylococcus aureus N315 assessed as reduction in bacterial growth incubated for 48 hrs by microdilution method; format: functional
[10] = test system: Staphylococcus aureus; assay: Antimicrobial activity against extended spectrum-lactamase-carbapenemas producing Staphylococcus aureus NCTC 10442 assessed as reduction in bacterial growth incubated for 48 hrs by microdilution method; format: functional
[11] = test system: Staphylococcus aureus; assay: Antimicrobial activity against extended spectrum-lactamase-carbapenemas producing Staphylococcus aureus strain 85/2082 assessed as reduction in bacterial growth incubated for 48 hrs by microdilution method; format: functional
[12] = test system: Staphylococcus aureus; assay: Antimicrobial activity against extended spectrum-lactamase-carbapenemas producing Staphylococcus aureus strain WIS assessed as reduction in bacterial growth incubated for 48 hrs by microdilution method; format: functional
[13] = test system: Staphylococcus aureus; assay: Antimicrobial activity against extended spectrum-lactamase-carbapenemas producing Staphylococcus aureus strain IHT 99040 assessed as reduction in bacterial growth incubated for 48 hrs by microdilution method; format: functional
[14] = test system: Enterococcus faecium; assay: Antimicrobial activity against extended spectrum-lactamase-carbapenemas producing Enterococcus faecium strain 50673722 assessed as reduction in bacterial growth incubated for 48 hrs by microdilution method; format: functional
[15] = test system: Enterococcus faecium; assay: Antimicrobial activity against extended spectrum-lactamase-carbapenemas producing Enterococcus faecium strain 50901530 assessed as reduction in bacterial growth incubated for 48 hrs by microdilution method; format: functional
[16] = test system: Enterococcus faecium; assay: Antimicrobial activity against extended spectrum-lactamase-carbapenemas producing Enterococcus faecium strain K36-18 assessed as reduction in bacterial growth incubated for 48 hrs by microdilution method; format: functional
[17] = test system: Enterococcus faecium; assay: Antimicrobial activity against extended spectrum-lactamase-carbapenemas producing Enterococcus faecium strain 50758899 assessed as reduction in bacterial growth incubated for 48 hrs by microdilution method; format: functional
[18] = test system: Enterococcus faecium; assay: Antimicrobial activity against extended spectrum-lactamase-carbapenemas producing Enterococcus faecium strain TUH.50-22 assessed as reduction in bacterial growth incubated for 48 hrs by microdilution method; format: functional
[19] = test system: Escherichia coli; assay: Antimicrobial activity against oxacillinase-producing Escherichia coli 50579417 assessed as reduction in bacterial growth incubated for 48 hrs by microdilution method; format: functional
[20] = test system: Escherichia coli; assay: Antimicrobial activity against verona integron-encoded metallo-beta-lactamase-29-producing Escherichia coli 50639799 assessed as reduction in bacterial growth incubated for 48 hrs by microdilution method; format: functional
[21] = test system: Escherichia coli; assay: Antimicrobial activity against New Delhi metallo-beta lactamase-1 producing Escherichia coli 50676002 assessed as reduction in bacterial growth incubated for 48 hrs by microdilution method; format: functional
[22] = test system: Escherichia coli; assay: Antimicrobial activity against New Delhi metallo-beta lactamase-1 producing Escherichia coli 50739822 assessed as reduction in bacterial growth incubated for 48 hrs by microdilution method; format: functional
[23] = test system: Escherichia coli; assay: Antimicrobial activity against imipenem-type carbapenemase-26 producing Escherichia coli 50857972 assessed as reduction in bacterial growth incubated for 48 hrs by microdilution method; format: functional
[24] = test system: Pseudomonas aeruginosa; assay: Antimicrobial activity against verona integron-encoded metallo-beta-lactamase-2 producing Pseudomonas aeruginosa K34-7 assessed as reduction in bacterial growth incubated for 48 hrs by microdilution method; format: functional
[25] = test system: Pseudomonas aeruginosa; assay: Antimicrobial activity against verona integron-encoded metallo-beta-lactamase-4 producing Pseudomonas aeruginosa K34-73 assessed as reduction in bacterial growth incubated for 48 hrs by microdilution method; format: functional
[26] = test system: Pseudomonas aeruginosa; assay: Antimicrobial activity against imipenem-type carbapenemase-14 producing Pseudomonas aeruginosa K44-24 assessed as reduction in bacterial growth incubated for 48 hrs by microdilution method; format: functional
[27] = test system: Pseudomonas aeruginosa; assay: Antimicrobial activity against New Delhi metallo-beta lactamase-1 producing Pseudomonas aeruginosa 50692172 assessed as reduction in bacterial growth incubated for 48 hrs by microdilution method; format: functional
[28] = test system: Pseudomonas aeruginosa; assay: Antimicrobial activity against verona integron-encoded metallo-beta-lactamase producing Pseudomonas aeruginosa 50692520 assessed as reduction in bacterial growth incubated for 48 hrs by microdilution method; format: functional
[29] = Antimicrobial activity against carbapenemase producing Klebsiella pneumoniae K47-25 assessed as reduction in bacterial growth incubated for 48 hrs by microdilution method; format: functional
[30] = Antimicrobial activity against New Delhi metallo-beta lactamase-1 Klebsiella pneumoniae K66-45 assessed as reduction in bacterial growth incubated for 48 hrs by microdilution method; format: functional
[31] = Antimicrobial activity against New Delhi metallo-beta lactamase-1 and oxacillinase -181 producing Klebsiella pneumoniae 50531633 assessed as reduction in bacterial growth incubated for 48 hrs by microdilution method; format: functional
[32] = Antimicrobial activity against oxacillinase-245 producing Klebsiella pneumoniae 50625602 assessed as reduction in bacterial growth incubated for 48 hrs by microdilution method; format: functional
[33] = Antimicrobial activity against verona integron-encoded metallo-beta-lactamase -1 producing Klebsiella pneumoniae 50667959 assessed as reduction in bacterial growth incubated for 48 hrs by microdilution method; format: functional
[34] = test system: Acinetobacter baumannii; assay: Antimicrobial activity against oxacillinase-58 producing Acinetobacter baumannii K12-21 assessed as reduction in bacterial growth incubated for 48 hrs by microdilution method; format: functional
[35] = test system: Acinetobacter baumannii; assay: Antimicrobial activity against oxacillinase-23 producing Acinetobacter baumannii K44-35 assessed as reduction in bacterial growth incubated for 48 hrs by microdilution method; format: functional
[36] = test system: Acinetobacter baumannii; assay: Antimicrobial activity against oxacillinase-23 producing Acinetobacter baumannii K47-42 assessed as reduction in bacterial growth incubated for 48 hrs by microdilution method; format: functional
[37] = test system: Acinetobacter baumannii; assay: Antimicrobial activity against oxacillinase-24 producing Acinetobacter baumannii K55-13 assessed as reduction in bacterial growth incubated for 48 hrs by microdilution method; format: functional
[38] = test system: Acinetobacter baumannii; assay: Antimicrobial activity against oxacillinase-23 producing Acinetobacter baumannii K63-58 assessed as reduction in bacterial growth incubated for 48 hrs by microdilution method; format: functional
[39] = test system: Escherichia coli; assay: Antibacterial activity against Escherichia coli EC106-09 infected in mouse peritonitis model assessed as reduction in colony forming unit at 1.4 mg/kg, ip relative to control; format: functional
[40] = test system: Escherichia coli; assay: Antibacterial activity against Escherichia coli EC106-09 infected in mouse peritonitis model assessed as reduction in colony forming unit at 1.4 mg/kg, ip treatment repeated after 3 hrs relative to control; format: functional
[41] = test system: Streptococcus pneumoniae; assay: Antibacterial activity against Klebsiella pneumoniae KP3010 infected in mouse peritonitis model assessed as reduction in colony forming unit at 1.4 mg/kg, ip relative to control; format: functional
[42] = test system: Streptococcus pneumoniae; assay: Antibacterial activity against Klebsiella pneumoniae KP3010 infected in mouse peritonitis model assessed as reduction in colony forming unit at 1.4 mg/kg, ip treatment repeated after 3 hrs relative to control; format: functional
[43] = test system: Mus musculus; assay: Toxicity in mouse assessed as tolerability at 2.8 to 3.6 mg/kg, ip; format: organism-based; details: in vivo, dose 2.8-3.6 mg/kg
[44] = test system: Streptococcus pneumoniae; assay: Antibacterial activity against in […] 168 assessed as decrease in bacterial viability at 6.3 ug/ml by cell viability assay; format: functional, organism-based; details: dose 6.3 µg/ml
[45] = test system: Escherichia coli; assay: Membrano-lytic effect in Escherichia coli HB101 assessed as decrease in bacterial viability at 6.3 ug/ml by luciferase based real-time membrane integrity assay; format: functional, organism-based; details: dose 6.3 µg/ml
[46] = test system: Escherichia coli; assay: Antibacterial activity against Escherichia coli HB101 assessed as decrease in bacterial viability at 6.3 ug/ml by cell viability assay; format: functional, organism-based; details: dose 6.3 µg/ml
[47] = test system: Escherichia coli; assay: Antibacterial activity against in Escherichia coli HB101 assessed as decrease in bacterial viability at 3.1 ug/ml by cell viability assay; format: functional, organism-based; details: dose 3.1 µg/ml
[48] = test system: Streptococcus pneumoniae; assay: Antibacterial activity against in […] 168 assessed as decrease in bacterial viability at 3.1 ug/ml by cell viability assay; format: functional, organism-based; details: dose 3.1 µg/ml
[49] = test system: Escherichia coli; assay: Membrano-lytic effect in Escherichia coli HB101 assessed as decrease in bacterial viability at 3.1 ug/ml by luciferase based real-time membrane integrity assay; format: functional, organism-based; details: dose 3.1 µg/ml

Work on N=C(N)NCCCCN1C(=O)N(CCCCNC(=N)N)C(=O)C(Cc2cc(Br)cc(Br)c2)(Cc2cc(Br)cc(Br)c2)C1=O.O=C(O)C(F)(F)F.O=C(O)C(F)(F)F yielded an IC50 [1] of 30 µg/mL, an EC50 [2] of 62 µg/mL and an MTD [3] of 7 mg/kg. For the same compound, the MIC [4] was 4 µg/mL, the MIC [5] was 2 µg/mL and the MIC [6] was 0.25 µg/mL. The MIC [7] was 1 µg/mL, the IC50 [8] was 11 µg/mL and the MIC [9] was 2 µg/mL. The MIC [10] was 2 µg/mL, the MIC [11] was 2 µg/mL and the MIC [12] was 2 µg/mL. For the same compound, the MIC [13] was 2 µg/mL, the MIC [14] was 4 µg/mL and the MIC [15] was 2 µg/mL. The MIC [16] was 4 µg/mL, the MIC [17] was 4 µg/mL and the MIC [18] was 2 µg/mL. It also gave an MIC [19] of 4 µg/mL, an MIC [20] of 4 µg/mL and an MIC [21] of 4 µg/mL. The MIC [22] was 4 µg/mL, the MIC [23] was 4 µg/mL and the MIC [24] was 8 µg/mL. For the same compound, the MIC [25] was 8 µg/mL, the MIC [26] was 8 µg/mL and the MIC [27] was 8 µg/mL. The MIC [28] was 16 µg/mL, the MIC [29] was 4 µg/mL and the MIC [30] was 4 µg/mL. The MIC [31] was 4 µg/mL, the MIC [32] was 4 µg/mL and the MIC [33] was 4 µg/mL. The MIC [34] was 4 µg/mL, the MIC [35] was 4 µg/mL and the MIC [36] was 4 µg/mL. It also gave an MIC [37] of 8 µg/mL, an MIC [38] of 4 µg/mL and an inhibition in vivo at 1.4 mg/kg [39] of 90%. The inhibition in vivo at 1.4 mg/kg [40] was 97%, the inhibition in vivo at 1.4 mg/kg [41] was 98% and the inhibition in vivo at 1.4 mg/kg [42] was 97%. For the same compound, the Activity [43] was “Non-Toxic”, the Activity [44] was “Active” and the Activity [45] was “Active”. For the same compound, the Activity [46] was “Active”, the Activity [47] was “Active” and the Activity [48] was “Active”. The Activity [49] was “Active”.

Work on NCCCCN1C(=O)N(CCCCN)C(=O)C(Cc2cc(Br)cc(Br)c2)(Cc2cc(Br)cc(Br)c2)C1=O.O=C(O)C(F)(F)F.O=C(O)C(F)(F)F yielded an IC50 [1] of 4 µg/mL, an EC50 [2] of 79 µg/mL and an MIC [4] of 8 µg/mL. The MIC [5] was 4 µg/mL, the MIC [6] was 1 µg/mL and the MIC [7] was 4 µg/mL. It also gave an IC50 [8] of 2 µg/mL, an MIC [9] of 4 µg/mL and an MIC [10] of 4 µg/mL. It also gave an MIC [11] of 4 µg/mL, an MIC [12] of 4 µg/mL and an MIC [13] of 4 µg/mL. For the same compound, the MIC [14] was 4 µg/mL, the MIC [15] was 4 µg/mL and the MIC [16] was 8 µg/mL. It also gave an MIC [17] of 4 µg/mL, an MIC [18] of 4 µg/mL and an MIC [19] of 8 µg/mL. It also gave an MIC [20] of 8 µg/mL, an MIC [21] of 8 µg/mL and an MIC [22] of 8 µg/mL. For the same compound, the MIC [23] was 8 µg/mL, the MIC [24] was 16 µg/mL and the MIC [25] was 16 µg/mL. For the same compound, the MIC [26] was 16 µg/mL, the MIC [27] was 16 µg/mL and the MIC [28] was 16 µg/mL. For the same compound, the MIC [29] was 16 µg/mL, the MIC [30] was 16 µg/mL and the MIC [31] was 8 µg/mL. The MIC [32] was 16 µg/mL, the MIC [33] was 16 µg/mL and the MIC [34] was 16 µg/mL. For the same compound, the MIC [35] was 16 µg/mL, the MIC [36] was 16 µg/mL and the MIC [37] was 16 µg/mL. For the same compound, the MIC [38] was 16 µg/mL, the Activity [44] was “Active” and the Activity [45] was “Active”. For the same compound, the Activity [46] was “Active”, the Activity [47] was “Active” and the Activity [48] was “Active”. For the same compound, the Activity [49] was “Active”.
